The target in experiment [1] is T1, human B1R (bradykinin receptor 1) (Homo sapiens, UniProt P46663).
T1 construct: expressed in transfected cells; host or cells: CHO K1 cells
T1 sequence (P46663 1-353): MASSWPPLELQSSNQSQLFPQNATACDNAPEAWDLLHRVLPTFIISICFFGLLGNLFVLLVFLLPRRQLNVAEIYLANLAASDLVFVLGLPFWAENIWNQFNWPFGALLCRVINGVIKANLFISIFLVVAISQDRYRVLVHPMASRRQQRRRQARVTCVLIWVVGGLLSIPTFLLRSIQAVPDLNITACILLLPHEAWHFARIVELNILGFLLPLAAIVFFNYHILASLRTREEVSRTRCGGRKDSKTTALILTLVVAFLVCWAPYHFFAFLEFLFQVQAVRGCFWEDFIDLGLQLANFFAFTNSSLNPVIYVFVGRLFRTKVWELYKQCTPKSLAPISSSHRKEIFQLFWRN
In words: FLIPR Ca2+ assay (Fluo-4) on CHO K1 cells stably transfected with the human B1R gene (hB1R cells): % inhibition at 10 μM / IC50, agonist Lys-Des-Arg9-bradykinin. The format is cell-based. To be noted: for inhibition at 10 µM: CHO-K1, human B1R. The gist of the method: (§1)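 Stably transfected CHO K1 cells loaded with Fluo-4 and read on FLIPR (λex 488, λem 540 nm; peak fluorescence). Test substance (10 μM) added first, then after 10–20 min the agonist at EC80; % inhibition versus maximum achievable inhibition. IC50 from several concentrations, n=2–3, N≥2.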

Experiment [2] has as its target T2, rat B1R (bradykinin receptor 1) (Rattus norvegicus, UniProt P97583).
T2 construct: expressed in transfected cells; host or cells: CHO K1 cells
T2 sequence (P97583 1-337): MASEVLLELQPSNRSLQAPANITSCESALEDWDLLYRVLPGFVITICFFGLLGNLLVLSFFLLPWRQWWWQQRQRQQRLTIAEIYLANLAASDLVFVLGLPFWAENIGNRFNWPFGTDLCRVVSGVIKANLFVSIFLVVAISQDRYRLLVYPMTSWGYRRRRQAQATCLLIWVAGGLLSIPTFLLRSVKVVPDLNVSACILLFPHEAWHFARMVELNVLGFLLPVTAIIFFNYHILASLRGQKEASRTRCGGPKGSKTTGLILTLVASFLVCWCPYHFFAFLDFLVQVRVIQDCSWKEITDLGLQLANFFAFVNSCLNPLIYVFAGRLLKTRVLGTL
In words: FLIPR Ca2+ assay (Fluo-4) on CHO K1 cells stably transfected with the B1R gene of the rat (rB1R cells): % inhibition at 10 μM / IC50, agonist Des-Arg9-bradykinin. It counts as cell-based. To be noted: for inhibition at 10 µM: CHO-K1, rat B1R. The essentials:
as §1

Structures are written as SMILES.

Regarding `CC1(C)CC(NC(=O)/C=C/c2ccccc2Cl)c2cc(C(=O)N3CCC4(CC3)CCN(c3ccncc3)CC4)ccc21` (stereo not shown) [Ind_CC-060, (E)-3-(2-chlorophenyl)-N-[3,3-dimethyl-6-(9-pyridin-4-yl-3,9-diazaspiro[5.5]undecane-3-carbonyl)-1,2-dihydro-inden-1-yl]-acrylamide], the results for the inhibition at 10 µM in experiment [1] and in experiment [2] were 93% and 94%, respectively.
The corresponding values for `CC1(C)CC(NC(=O)NCc2ccccc2Cl)c2cc(C(=O)N3CCC4(CC3)CCN(c3ccncc3)CC4)ccc21` (stereo not shown) [Ind_CC-061, 1-[(2-chlorophenyl)-methyl]-3-[3,3-dimethyl-6-(9-pyridin-4-yl-3,9-diazaspiro[5.5]undecane-3-carbonyl)-1,2-dihydro-inden-1-yl]-urea] are 100% and 103%.
Consider `O=C(c1ccc2c(c1)[C@H](N1Cc3cccc(Cl)c3C1=O)CCC2)N1CCC2(CCN(c3ccncc3)CC2)C1` [Example H-13, 7-chloro-2-[(1R)-7-(8-pyridin-4-yl-3,8-diazaspiro[4.5]decane-3-carbonyl)-1,2,3,4-tetrahydro-naphthalen-1-yl]-2,3-dihydro-isoindol-1-one], for which the inhibition at 10 µM in experiment [1] amounted to 100%; in experiment [2], 101%.
The corresponding values for `CC1(C)CC(NC(=O)c2c(Cl)cccc2Cl)c2cc(C(=O)N3CCC4(CC3)CCN(c3ccncc3)CC4)ccc21` (stereo not shown) [IND_CC-288, 2,6-Dichloro-N-[3,3-dimethyl-6-(3-pyridin-4-yl-3,9-diazaspiro[5.5]undecane-9-carbonyl)-1,2-dihydro-inden-1-yl]-benzamide] are 100% and 106%.
For `Cc1cccc(C)c1C(=O)NC1CC(C)(C)c2ccc(C(=O)N3CCC4(CC3)CCN(c3ccncc3)CC4)cc21` (stereo not shown) [IND_CC-309, N-[3,3-Dimethyl-6-(3-pyridin-4-yl-3,9-diazaspiro[5.5]undecane-9-carbonyl)-1,2-dihydro-inden-1-yl]-2,6-dimethyl-benzamide], the inhibition at 10 µM in experiment [1] was found to be 97%; in experiment [2] it was 104%.
In the case of `O=C(/C=C/c1ccccc1Cl)NC1CCc2ccc(C(=O)N3CCC4(CC3)CCN(c3ccncc3)CC4)cc21` (stereo not shown) [Ind_CC-008, (E)-3-(2-chlorophenyl)-N-[6-(9-pyridin-4-yl-3,9-diazaspiro[5.5]undecane-3-carbonyl)-2,3-dihydro-1H-inden-1-yl]-acrylamide], the values for the inhibition at 10 µM in experiment [1] and in experiment [2] were 72% and 74%, respectively.
In the case of `O=C(Nc1ccc(Cl)c(Cl)c1)NC1CCc2ccc(C(=O)N3CCC4(CC3)CCN(c3ccncc3)CC4)cc21` (stereo not shown) [Ind_CC-011], the “% Inhibition (human B1R) at 10 μM” value in experiment [1] (human B1R) is on record as 36%. Moreover, the “% Inhibition (rat B1R) at 10 μM” value in experiment [2] (rat B1R) turned out to be 76%.
Regarding `O=C(N[C@@H]1CCCc2ccc(C(=O)N3CCC4(CCCN(c5ccncc5)C4)CC3)cc21)c1ccccc1Cl` [Example H-80], the results for the inhibition at 10 µM in experiment [1] and in experiment [2] were 57% and 105%, respectively.
The matching figures for `O=C(NC1CCc2ccc(C(=O)N3CCC4(CC3)CCN(c3ccncc3)C4)cc21)c1sccc1Cl` (stereo not shown) [Ind_CC-042, 3-chloro-N-[6-(2-pyridin-4-yl-2,8-diazaspiro[4.5]decane-8-carbonyl)-2,3-dihydro-1H-inden-1-yl]-thiophene-2-carboxylic acid amide]: 98% and 101%.
The corresponding values for `CC1(C)Cc2ccc(C(=O)N3CCC4(CC3)CCN(c3ccncc3)CC4)cc2C1NS(=O)(=O)CCc1ccccc1Cl` (stereo not shown) [IND_CC-242, 2-(2-Chlorophenyl)-N-[2,2-dimethyl-6-(9-pyridin-4-yl-3,9-diazaspiro[5.5]-undecane-3-carbonyl)-1,3-dihydro-inden-1-yl]-ethanesulfonic acid amide] are 94% and 101%.
Regarding `O=C(NC1CCc2ccc(C(=O)N3CCC4(CC3)CCN(c3ccncc3)CC4)cc21)c1cccc(Cl)c1Cl` (stereo not shown) [IND_CC-266, 2,3-Dichloro-N-[6-(9-pyridin-4-yl-3,9-diazaspiro[5.5]undecane-3-carbonyl)-2,3-dihydro-1H-inden-1-yl]-benzamide], the inhibition at 10 µM in experiment [1] was found to be 98%; in experiment [2], 106%.
The corresponding values for `O=C(c1ccc2c(c1)CC[C@H]2N1Cc2cccc(Cl)c2C1=O)N1CCC2(CCN(c3ccncc3)CC2)C1` [Example H-160] are 98% and 105%.
Take `O=C(N[C@@H]1CCCc2cc(F)c(C(=O)N3CCC4(CC3)CCN(c3ccncc3)C4)cc21)c1ccccc1Cl` [Example H-87, 2-Chloro-N-[(1R)-6-fluoro-7-(3-pyridin-4-yl-3,8-diazaspiro[4.5]decane-8-carbonyl)-1,2,3,4-tetrahydro-naphthalen-1-yl]-benzamide]: the inhibition at 10 µM is 99% in experiment [1] and 103% in experiment [2].
`O=C(N[C@@H]1CCc2ccc(C(=O)N3CCC4(CCN(c5ccncc5)CC4)C3)cc21)c1cncnc1` [Example H-84, N-[(1R)-6-(8-Pyridin-4-yl-3,8-diazaspiro[4.5]decane-3-carbonyl)-2,3-dihydro-1H-inden-1-yl]-pyrimidine-5-carboxylic acid amide]: the figures for the inhibition at 10 µM in experiment [1] and in experiment [2] were 100% and 104%, respectively.
The matching figures for `CC1(C)CC(NC(=O)c2ccccc2Cl)c2cc(C(=O)N3CCC4(CCN(c5ccncc5)CC4)C3)ccc21` (stereo not shown) [Example H-132, 2-Chloro-N-[3,3-dimethyl-6-(8-pyridin-4-yl-3,8-diazaspiro[4.5]decane-3-carbonyl)-1,2-dihydro-inden-1-yl]-benzamide]: 100% and 102%.
The matching figures for `O=C(NC1CCc2ccc(C(=O)N3CCC4(CC3)CCN(c3ccncc3)C4)cc21)c1ccc(Cl)cc1Cl` (stereo not shown) [Ind_CC-044, 2,4-dichloro-N-[6-(2-pyridin-4-yl-2,8-diazaspiro[4.5]decane-8-carbonyl)-2,3-dihydro-1H-inden-1-yl]-benzamide]: 97% and 100%.
On to `O=C(c1ccc2c(c1)CC[C@H]2N1Cc2cccc(Cl)c2C1=O)N1CCC2(CC1)CCN(c1ccncc1)CC2` [Example H-159, 7-Chloro-2-[(1R)-5-(9-pyridin-4-yl-3,9-diazaspiro[5.5]undecane-3-carobnyl)-2,3-dihydro-1H-inden-1-yl]-2,3-dihydro-isoindol-1-one], for which the inhibition at 10 µM worked out at 98% in experiment [1] and 103% in experiment [2].
The matching figures for `COc1cc(C)c(C(=O)N[C@@H]2CCc3ccc(C(=O)N4CCC5(CCN(c6ccncc6)CC5)C4)cc32)cc1C` [Example H-103, 4-Methoxy-2,5-dimethyl-N-[(1R)-6-(8-pyridin-4-yl-3,8-diazaspiro[4.5]decane-3-carbonyl)-2,3-dihydro-1H-inden-1-yl]-benzamide]: 99% and 106%.
For `O=C(N[C@@H]1CCc2ccc(C(=O)N3CCC4(CC3)CCN(c3ccncc3)CC4)cc21)c1c(Cl)cccc1Cl` [Example H-100, 2,6-Dichloro-N-[(1R)-6-(9-pyridin-4-yl-3,9-diazaspiro[5.5]undecane-3-carbonyl)-2,3-dihydro-1H-inden-1-yl]-benzamide], the inhibition at 10 µM worked out at 100% in experiment [1] and 108% in experiment [2].
For the compound `O=C(N[C@@H]1CCc2ccc(C(=O)N3CCC4(CCN(c5ccncc5)CC4)C3)cc21)c1cc(Cl)ccc1Cl` [Example H-98, 2,5-Dichloro-N-[(1R)-6-(8-pyridin-4-yl-3,8-diazaspiro[4.5]decane-3-carbonyl)-2,3-dihydro-1H-inden-1-yl]-benzamide], the inhibition at 10 µM was determined as 100% in experiment [1] and 108% in experiment [2].
With `Cc1cc2c(cc1C(=O)N1CCC3(CCN(c4ccncc4)CC3)C1)[C@H](NC(=O)c1ccccc1Cl)CC2` [Example H-93, 2-Chloro-N-[(1R)-5-methyl-6-(8-pyridin-4-yl-3,8-diazaspiro[4.5]decane-3-carbonyl)-2,3-dihydro-1H-inden-1-yl]-benzamide], the inhibition at 10 µM in experiment [1] came out at 100%; in experiment [2], 103%.
The matching figures for `COc1ccc(C(=O)N[C@@H]2CCc3ccc(C(=O)N4CCC5(CC4)CCN(c4ccncc4)C5)cc32)c(Cl)c1` [Example H-60, 2-Chloro-4-methoxy-N-[(1R)-6-(3-pyridin-4-yl-3,8-diazaspiro[4.5]decane-8-carbonyl)-2,3-dihydro-1H-inden-1-yl]-benzamide]: 82% and 101%.
Regarding `CN(C1CCc2ccc(C(=O)N3CCC4(CC3)CCN(c3ccncc3)CC4)cc21)S(=O)(=O)Cc1ccccc1C(F)(F)F` (stereo not shown) [IND_CC-226, N-Methyl-N-[6-(9-pyridin-4-yl-3,9-diazaspiro[5.5]undecane-3-carbonyl)-2,3-dihydro-1H-inden-1-yl]-1-[2-(trifluoromethyl)-phenyl]-methanesulfonic acid amide], the inhibition at 10 µM was 98% in experiment [1] and 101% in experiment [2].

Broadly, the inhibition is the change of the read-out against control, counted positive when it falls.

Source of the values: US8455475B2 (Gruenenthal GmbH, priority 2009, dated 2013).
